Key:
[1] = tested on: DPC4 isogenic cell lines (BxPC-3-vector and BxPC-3-DPC4); assay: Pharmacological synthetic lethal screening in DPC4 isogenic cell lines; type: cell-based, human; settings: reexpression isogenic cell lines
Text: To find molecules that selectively kill cells with specific deficiencies, Applicants use cell proliferation assays to screen molecules libraries in a high throughput manner. These molecule libraries can be small organic compounds, siRNA libraries, antisense libraries and antibody/protein libraries. To carry out the screening in an efficient and cost-effective way, Applicants have designed a procedure for the screening of small organic compound libraries which consists of three steps, namely Toxicity Screen, Synthetic Lethal Screen and Selectivity Screen (FIG. 12). […]
In the Selectivity Screening, compounds are tested against cancer cell lines with a specific loss-of-function mutation and normal cells (HPDE6 and FORF-TERT). Depending on their approximate potency assessed in the Synthetic lethal Screening, compounds are tested in a range of concentrations (8 concentrations per agent) in Selectivity Screening. […]
After generating the isogenic cell lines for the DPC4 gene, Applicants then carried out a screening process using the cell lines with the aim to identify compounds that selectively kill cells with deficient DPC4 function. […] In each round, the anti-proliferative activity of compounds was evaluated in different cell lines using the CellTiter 96 Non-Radioactive Cell Proliferation Assay (Promega). […]

HPDE6 (wild-type DPC4) = assay: MTS cell proliferation assay, HPDE6 cells; type: cell-based; settings: Homo sapiens
Experimental: (§1) At the initial screening, compounds are tested in the MTS assay (or other cell proliferation assays such as SRB and Alamar Blue) against the cell line in which the specific gene is either deleted or suppressed by siRNA at a single dose of 10 μM (Toxicity Screening).
(§2) Compounds that show more than 50% cell growth inhibition at this concentration are selected to test against both isogenic cell lines (loss-of-function vs. wild type) at three different concentrations (10, 2 and 0.4 μM, Synthetic lethal Screening). Compounds that show a selectivity index ≧5 are selected for next round of screening—Selectivity Screening.
(§3) In the Selectivity Screening, compounds are tested against cancer cell lines with a specific loss-of-function mutation and normal cells (HPDE6 and FORF-TERT). Depending on their approximate potency assessed in the Synthetic lethal Screening, compounds are tested in a range of concentrations (8 concentrations per agent) in Selectivity Screening. Compounds that have nM IC50 values in loss-of-function cells and selectivity index values >10 are selected for phenotypic consequence tests and in vivo evaluations in animal models.
(§4) The inhibition of cell proliferation by library compounds was evaluated using the CellTiter 96 Non-Radioactive Cell Proliferation Assay following the protocol recommended by the manufacturer (Promega, Madison Wis.). […]

[2] = tested on: HPDE6-siDPC4 (HPDE6 cells with DPC4 expression stably suppressed by siRNA); assay: MTS cell proliferation assay, HPDE6-siDPC4 cells; type: cell-based; settings: Homo sapiens
Experimental: as §1, §2, §3, §4

Panc-1 (DPC4 wildtype) = assay: MTS cell proliferation assay, Panc-1 cells; type: cell-based; settings: Homo sapiens
Experimental: (§5) The inhibition of cell proliferation by library compounds was evaluated using the CellTiter 96 Non-Radioactive Cell Proliferation Assay following the protocol recommended by the manufacturer (Promega, Madison Wis.). Briefly, 2000 cells were seeded in each well of 96-well plates in 90 μl growth medium. Cells were allowed to attach overnight followed by addition of 10 μl of serially diluted compounds into the plates. After incubation for 4 days at 37° C. in a humidified incubator, 20 μl of a 20:1 mixture of (3-(4,5-dimethylthiazol-2-yl)-5-(3-carboxymethoxyphenyl)-2-(4-sulfophenyl)-2H-tetrazolium, inner salt (MTS, 2 mg/ml) and an electron coupling reagent, phenazine methosulfate (PMS, 0.92 mg/ml), was added to each well and incubated for 3 hours at 37° C. Absorbance was then measured using the Wallace Victor microplate reader at 490 nm (PerkinElmer, Wellesley, Mass.). Data were expressed as the percentage of cell growth calculated from the absorbance corrected for background absorbance. The surviving fraction of cells was determined by dividing the mean absorbance values of the treated samples by the mean absorbance values of the DMSO control.
After generating the isogenic cell lines for the DPC4 gene, Applicants then carried out a screening process using the cell lines with the aim to identify compounds that selectively kill cells with deficient DPC4 function. […]

BxPC-3-DPC4 cells = assay: MTS based cell proliferation assay, BxPC-3-DPC4 cells; design: species or system human; settings: for IC50: BxPC-3-DPC4 (reexpression of wild-type DPC4), MTS, 4 days
Experimental: as §5
After generating the isogenic cell lines for the DPC4 gene, Applicants then carried out a screening process using the cell lines with the aim to identify compounds that selectively kill cells with deficient DPC4 function. […] In each round, the anti-proliferative activity of compounds was evaluated in different cell lines using the CellTiter 96 Non-Radioactive Cell Proliferation Assay (Promega). In the Toxicity Screen, compounds were evaluated in the BxPC-3 parental cell line at a single concentration of 10 μM. […] The activities of a compound in the DPC4 isogenic cell lines were calculated and a selectivity index was determined for each concentration (Selectivity index=Percentage cell survival in BxPC-3-DPC4 cells/Percentage cell survival in BxPC-3-vector cells). […] These ten compounds were further evaluated in third round of screening, the Selectivity screening. […]

O=C1c2ccccc2C(=O)c2c1ccc1c(=O)n(-c3ccccc3)[nH]c21 [UA62001, 2-phenyl-1H-Naphth [2,3-g]indazole-3,6,11(2H)-trione]
selectivity against DPC4 deficiency [1]: DPC4 genotype selectivity
IC50 (HPDE6 (wild-type DPC4)): > 100 µM
IC50 [2]: 6 µM
IC50 (Panc-1 (DPC4 wildtype)): 26 µM
IC50 (BxPC-3-DPC4 cells): 14.7 ± 4.3 µM
IC50 (BxPC-3-DPC4 cells; Homo sapiens, 96 h): 25 µM
IC50 values in two more stable clones of BxPC-3-DPC4 cells (BxPC-3-DPC4 cells; two more stable clones, compared with the original clone): very similar to that in the original clone

Reference: patent US8394742B2, “Methods, compounds and compositions with genotype selective anticancer activity” (The Translation Genomics Research Institute, priority 2005, dated 2013)
